# Reference: patent US5182289A, “Heterobicyclic compounds having antiinflammatory activity” (Schering Corporation, priority 1990, dated 1993)
# Tests used:
# 5-lipoxygenase = target: T1, 5-lipoxygenase (Homo sapiens, UniProt P09917); test: 5-Lipoxygenase Assay in human polymorphonuclear (PMN) leukocytes, 5-HETE production; type: cell-based
# T1 construct: Human polymorphonuclear (PMN) leukocytes (neutrophils) are obtained from normal healthy volunteers; endogenous in cells; host or cells: human polymorphonuclear leukocytes (neutrophils) from blood of healthy volunteers
# T1 sequence (P09917 1-674): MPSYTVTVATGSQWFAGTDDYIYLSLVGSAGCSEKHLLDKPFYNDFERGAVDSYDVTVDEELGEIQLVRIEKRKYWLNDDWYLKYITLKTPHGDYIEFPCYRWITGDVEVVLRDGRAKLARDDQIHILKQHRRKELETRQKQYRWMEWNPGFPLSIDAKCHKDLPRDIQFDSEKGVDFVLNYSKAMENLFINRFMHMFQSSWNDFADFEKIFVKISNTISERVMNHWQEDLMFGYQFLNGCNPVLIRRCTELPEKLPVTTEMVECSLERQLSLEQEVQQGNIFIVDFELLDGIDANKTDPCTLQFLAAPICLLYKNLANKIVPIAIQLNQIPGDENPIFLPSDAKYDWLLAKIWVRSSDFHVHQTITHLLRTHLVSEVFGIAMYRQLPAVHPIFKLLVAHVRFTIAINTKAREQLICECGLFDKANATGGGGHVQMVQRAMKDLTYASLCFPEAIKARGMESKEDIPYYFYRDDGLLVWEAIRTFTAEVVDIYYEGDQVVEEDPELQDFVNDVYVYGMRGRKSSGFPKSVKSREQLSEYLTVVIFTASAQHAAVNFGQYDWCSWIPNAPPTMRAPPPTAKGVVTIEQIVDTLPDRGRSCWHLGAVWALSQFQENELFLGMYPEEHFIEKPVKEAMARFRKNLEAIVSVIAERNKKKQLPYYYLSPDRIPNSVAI
# Experimental: Human polymorphonuclear (PMN) leukocytes (neutrophils) are obtained from normal healthy volunteers by venipuncture and collected with heparin anticoagulant. Neutrophils are isolated by Dextran/Ficol sedimentation as described (Billah et al, J. Biol. Chem. 260, 6899-6906 (1985)). In brief, 30 ml of blood is mixed with 5 ml of dextran (Sigma) solution and kept at 37° C. for 30 min. The upper white cellrich layer is removed and 10 ml is layered on 9 ml of Ficol-Paque solution (Pharmacia) and centrifuged at 280×g for 10 min. at 5° C. The supernatant is removed and the neutrophil pellet is resuspended in HEPES buffer containing 25 mM N-2-hydroxyethylpiperazine-N^1 -2 ethanesulfonic acid(HEPES), 125 mM NaCl, 2.5 mM KCL, 0.7 mM MgCl2, 0.5 mM and 10 mM glucose at pH 7.4. The red cells in the suspension are lysed by hypotonic shock. The neutrophils are washed by centrifugation in HEPES buffer two times and finally resuspended at a concentration of 20×10^6 cells/ml in the presence of 1 mM CaCl2.
# Neutrophils (0.2 ml of suspension) are preincubated with dimethylsulfoxide (DMSO) vehicle with or without test compound (1 ul) for 4 minutes then incubated for 5 minutes with ^14 C-arachidonic acid (Amersham, 59 Ci/mole) at a 9 uM final concentration, and the calcium ionophore A23187 (Calbiochem) at a 1 uM final concentration. These stimulants are added in 10 ul of water:ethanol (9:1). The reaction is stopped by addition of methanol (0.4 ml), and cellular debris is removed by centrifugation. Aliquots (100 ul) of the incubations are run on a Waters two pump high performance liquid chromatography (HPLC) system fitted with a DuPont Zorbax ODS, 5 u, 4×80 […] Reliance Cartridge column and C18 "Guard Pak". The column is initially eluted at 2 ml/min with 80 percent of the mixture water:methanol:acetic acid (46:54:0.08) containing 1 mM EDTA adjusted to pH 6.0 with ammonium hydroxide (Pump A) and 20% methanol (Pump B). At 10 minutes, a linear gradient is established. to reach 100 percent methanol (Pump B) at 27 minutes. Between 27 and 28 minutes, methanol is exchanged for the initial eluting solvent and by 35 minutes the column is reequilibrated for the next sample. The effluent is analyzed by a continuous flow radioactivity monitor (model ROMONA-D) interfaced with a Hewlett Packard Lab Automation System for quantitation of radioactive products. This includes the major 5-lipoxygenase product, 5-hydroxyeicosatetraenoic acid (5-HETE) which elutes at 20 minutes. The results with and without test compound are used to calculate percent inhibition of 5-HETE production.
# cyclooxygenase = target: T2, cyclooxygenase (Homo sapiens, UniProt P23219); test: Cyclooxygenase Assay with Human Platelets, HHT production; type: cell-based; conditions: for % inhibition of HHT production in human platelets at 50 µM / % inhibition of HHT production in human platelets at 15 µM: read-out: PMN Assay % Inhibition HHT
# T2 construct: Cyclooxygenase Assay with Human Platelets; endogenous in cells; host or cells: human blood platelets from healthy volunteers
# Experimental: Cyclooxygenase Assay with Human Platelets
# Blood is collected in acid-citrate-dextrose anticoagulant by venipuncture from normal healthy volunteers who said that they were not on any medication for the previous two weeks. Platelets are isolated by the procedure of Okuma and Uchino (Blood 54:1258-1271 (1979)). In brief, blood is centrifuged at 4° C. at 200×g for 10 minutes to sediment red and white cells. The platelet rich plasma (PRP) supernatant is removed and mixed with one-tenth volume of 77 mM EDTA, pH 7.2 and prostacyclin sodium salt is added to the PRP at a final concentration of 1 nanogram per milliliter(ng/mL). The PRP is centrifuged at 1700×g, 4° C. for 15 minutes. The platelet pellet is resuspended in the HEPES buffer described in the 5-lipoxygenase section above which additionally contained 1 ng/mL prostacyclin and 0.5 mM ethylene glycolbis(B-aminoethyl ether) N,N,N',N'-tetraacetic acid (EGTA) and the suspension is recentrifuged at 1,700×g, 4° C. for 15 minutes. The pellet is resuspended in HEPES buffer containing 0.5 mM EGTA and 1.5 mM CaCl2 at a cell count of 200,000 cells/ul. Platelets (0.2 ml of suspension) are preincubated with test compounds and the ^14 C-arachidonic acid plus the calcium ionophore A23187 stimulant exactly as described for the 5-lipoxygenase assay. The cyclooxygenase product 12-hydroxyheptadecatrienoic acid (HHT) is isolated and quantitated by the HPLC system used for the 5-lipoxygenaseassay. HHT elutes from this system at about eleven minutes. Results are expressed as percent inhibition of HHT production by the test compounds versus the test vehicle alone.
# T2 sequence (P23219 24-599): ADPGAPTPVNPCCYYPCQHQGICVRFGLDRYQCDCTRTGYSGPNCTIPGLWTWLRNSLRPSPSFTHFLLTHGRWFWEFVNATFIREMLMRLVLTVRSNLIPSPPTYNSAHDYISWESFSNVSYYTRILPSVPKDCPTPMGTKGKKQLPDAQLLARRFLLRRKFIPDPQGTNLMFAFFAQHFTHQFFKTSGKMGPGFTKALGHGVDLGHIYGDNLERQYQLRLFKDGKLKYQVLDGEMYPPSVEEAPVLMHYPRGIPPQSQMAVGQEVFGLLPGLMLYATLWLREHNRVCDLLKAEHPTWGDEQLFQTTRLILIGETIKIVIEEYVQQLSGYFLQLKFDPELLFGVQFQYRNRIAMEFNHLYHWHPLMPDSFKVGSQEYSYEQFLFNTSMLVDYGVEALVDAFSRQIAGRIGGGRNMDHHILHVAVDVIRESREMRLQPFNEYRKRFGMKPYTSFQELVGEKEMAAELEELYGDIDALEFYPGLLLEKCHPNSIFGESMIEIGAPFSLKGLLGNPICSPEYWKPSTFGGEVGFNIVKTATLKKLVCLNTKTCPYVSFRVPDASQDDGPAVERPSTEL
inhibition at 50 µM (5-lipoxygenase; 50 μM),% inhibition of HHT production in human platelets at 50 µM (cyclooxygenase),inhibition at 15 µM (5-lipoxygenase; 15 μM),Compound,other results
,,99%,"O=C1C(Sc2ccccc2)c2cccnc2N1c1ccc(Cl)c(Cl)c1 (stereo not drawn) [Compound 34, 1,3-dihydro-1-(3,4-dichlorophenyl)-3-(phenylthio)[2,3-b]pyridin-2-one]",% inhibition of HHT production in human platelets at 15 µM (cyclooxygenase; 15 μM): 54%
,,96%,"O=C1N(Cc2ccccc2)c2ncccc2C1(Sc1ccccc1)Sc1ccccc1 [Compound 26, 1,3-dihydro-3,3-(diphenylthio)-1-(phenylmethyl)-2H-pyrrolo[2,3-b]pyridin-2-one]",% inhibition of HHT production in human platelets at 15 µM (cyclooxygenase; 15 μM): 11%
,,24%,"CN1C(=O)C([S+]([O-])c2ccccc2)c2cccnc21 (stereo not drawn) [Compound 24, 1,3-dihydro-1-methyl-3-(phenylsulfinyl)-2H-pyrrolo[2,3-b]pyridin-2-one]",
,,10%,"CN1C(=O)C(S(=O)(=O)c2ccccc2)c2cccnc21 (stereo not drawn) [Compound 31, 1,3-dihydro-1-methyl-3-(phenylsulfonyl)-2H-pyrrolo[2,3-b]pyridin-2-one]",
,,21%,"CSC1(C)C(=O)N(c2ccccc2)c2ncccc21 (stereo not drawn) [Compound 32, 1,3-dihydro-3-methyl-3-(methylthio)-1-phenyl--2H-pyrrolo[2,3-b]pyridin-2-one]",
,,16%,"O=C1C(Sc2ccccc2)c2cccnc2N1Cc1ccccc1 (stereo not drawn) [Compound 27, 1,3-dihydro-1-(phenylmethyl)-3-(phenylthio)-2H-pyrrolo[2,3-b]pyridin-2-one]",
,,87%,"O=C1C(Sc2ccccc2)c2cccnc2N1c1cccc(Cl)c1 (stereo not drawn) [Compound 33, 1,3-dihydro-1-(3-chlorophenyl)-3-(phenylthio)-2H-pyrrolo]",% inhibition of HHT production in human platelets at 15 µM (cyclooxygenase; 15 μM): 52%
84%,31%,,"COc1ccccc1SC1C(=O)N(c2ccccc2)c2ncccc21 (stereo not drawn) [Compound 22, 1,3-dihydro-3-(2-methoxyphenylthio)-1-phenyl-2H-pyrrolo[2,3-b]pyridin-2-one]",
90%,80%,,"O=C1C(Sc2ccccc2Cl)c2cccnc2N1c1ccccc1 (stereo not drawn) [Compound 20, 1,3-dihydro-3-(2-chlorophenylthio)-1-phenyl-2H-pyrrolo[2,3-b]pyridin-2-one]",
,,61%,"COc1ccc(SC2C(=O)N(c3ccccc3)c3ncccc32)cc1 (stereo not drawn) [Compound 21, 1,3-dihydro-3-(4-methoxyphenylthio)-1-phenyl-2H-pyrrolo[2,3-b]pyridin-2-one]",
,,56%,CC(=O)C1(SCCO)C(=O)N(c2ccccc2)c2ncccc21 (stereo not drawn) [Compound 29],
,,8%,"O=C1C(SCCO)c2cccnc2N1c1ccccc1 (stereo not drawn) [Compound 25, 1,3-dihydro-3-(2-hydroxyethylthio)-1-phenyl-2H-pyrrolo[2,3-b]pyridin-2-one]",

# Continued, compound first:
Compound,inhibition at 50 µM (5-lipoxygenase; 50 μM),% inhibition of HHT production in human platelets at 50 µM (cyclooxygenase),inhibition at 15 µM (5-lipoxygenase; 15 μM),other results
"CC(C)N1C(=O)C(Sc2ccccc2)c2cccnc21 (stereo not drawn) [Compound 14, 1,3-dihydro-1-(methylethyl)-3-(phenylthio)-2H-pyrrolo[2,3-b]pyridin-2-one]",63%,17%,,
"CC(C)c1ccc(N2C(=O)C(Sc3ccccc3)c3cccnc32)cc1 (stereo not drawn) [Compound 15, 1,3-dihydro-1-(4-(1-methylethyl)-phenyl)-3-(phenylthio)-2H-pyrrolo[2,3-b]pyridin-2-one]",84%,,,
"Cc1c(Cl)cccc1N1C(=O)C(Sc2ccccc2)c2cccnc21 (stereo not drawn) [Compound 18, 1,3-dihydro-1-(3-chloro-2-methylphenyl)-3-(phenylthio)-2H-pyrrolo[2,3-b]pyridin-2-one]",86%,64%,,
"CN1C(=O)C(Sc2ccccc2)c2cccnc21 (stereo not drawn) [Compound 17, 1,3-dihydro-1-methyl-3-(phenylthio)-2H-pyrrolo[2,3-b]pyridin-2-one]",63%,21%,,
"CC1(Sc2ccccc2)C(=O)N(c2ccccc2)c2ncccc21 (stereo not drawn) [Compound 16, 1,3-dihydro-3-methyl-1-phenyl-3-(phenylthio)-2H-pyrrolo[2,3-b]pyridin-2-one]",68%,2%,,
"O=C1C([S+]([O-])c2ccccc2)c2cccnc2N1c1cccc(C(F)(F)F)c1 (stereo not drawn) [Compound 13, 1,3-dihydro-3-(phenylsulfinyl)-1-(3-trifluoromethylphenyl)-2H-pyrrolo[2,3-b]pyridin-2-one]",82%,44%,,
"1,3-dihydro-3-(2-methoxyphenylthio)-1-phenyl-2H-pyrrolo[2,3-b]pyridin-2-one [Compound 23]",,,,PMN Assay % Inhibition 5-HETE (5-lipoxygenase; 15 μM): 47%; PMN Assay % Inhibition 5-HETE (5-lipoxygenase; 50 μM): 81%; % inhibition of HHT production in human platelets (cyclooxygenase; 15 μM): 49%
"O=C1C(Sc2ccccc2)c2cccnc2N1c1ccccc1 (stereo not drawn) [Compound 11, 1,3-dihydro-1-phenyl-3-(phenylthio)-2H-pyrrolo[2,3-b]pyridin-2-one]",,,67%,% inhibition of HHT production in human platelets at 15 µM (cyclooxygenase; 15 μM): 23%
"COc1c(Sc2ccccc2)c2cccnc2n1-c1ccccc1 [Compound 35, 2-methoxy-1-phenyl-3-(phenylthio)-1H-pyrrolo[2,3-b]pyridine]",,,,inhibition of 5-HETE in the PMN assay (5-lipoxygenase; concentration not given): 80%; % inhibition of HHT production in human platelets (cyclooxygenase; concentration not given): 55%
"CC(=O)OCCSC1C(=O)N(c2ccccc2)c2ncccc21 (stereo not drawn) [Compound 30, 1,3-dihydro-3-[2-(acetoxy)-ethylthio]-1-phenyl-2H-pyrrolo[2,3-b]pyridin-2-one]",,,26%,
"O=C1C(Sc2ccc(Cl)cc2)c2cccnc2N1c1ccccc1 (stereo not drawn) [Compound 19, 1,3-dihydro-3-(4-chlorophenylthio)-1-phenyl-2H-pyrrolo[2,3-b]pyridin-2-one]",91%,71%,,
"O=C1C(Sc2ccccc2)c2cccnc2N1c1cccc(C(F)(F)F)c1 (stereo not drawn) [Compound 12, 1,3-dihydro-3-(phenylthio)-1-(3-trifluoromethylphenyl)-2H-pyrrolo[2,3-b]pyridin-2-one]",,,79%,
